Laboratory results: patent publication US12310941B2, “Agent for protection of blood brain spinal cord barrier” (National University Corporation Hokkaido University, priority 2020, dated 2025)

Legend:
[1] = test system: Human brain vascular endothelial cells (hCMEC/D3); assay: Cell viability of human brain vascular endothelial cells under hydrogen peroxide stress; type: cell-based; conditions: 450 μM hydrogen peroxide, 6 hours; PrestoBlue; stressed cells without test compound about 0.2; FIG. 17
Protocol: Human brain vascular endothelial cells (hCMEC/D3, Sigma) were seeded to 5,000 cells/cm^2 on a 96-well plate (Falcon cell culture 96-well multi-well plate, with flat bottom lid) coated with 0.1 mg/ml collagen type 1 (Sigma-Aldrich), and cultured at 37° C. for 24 hours with 5% CO2 using Endothelial Cell Growth Medium (PromoCell, Germany). Bismuth citrate, bismuth subnitrate, bismuth tartrate, or zinc sulfate dissolved in saline, and hydrogen peroxide at a final concentration of 450 μM were added to the medium and incubated for 6 hours to simultaneously stress the cells and treat them with test compounds. The cell viability after loading stress was measured using PrestoBlue (registered trademark) Cell Viability Reagent (Life Technologies).
The cell viability is illustrated in FIG. 17 when the cell viability of the control without hydrogen peroxide stress is 1 and the cell-free is 0. […] Note that the survival rate of the cells subjected to hydrogen peroxide stress and not added the test compound was about 0.2.

[2] = test system: spinal cord crush injury rats; assay: Histological evaluation in spinal cord crush injury model; type: in vivo, Lewis rats; conditions: 8 weeks after injury, vs vehicle; for reactive astrocyte area (GFAP positive area): FIG. 6
Protocol: Crush injuries were created in the fifth cervical cord (C5) of Lewis rats (female, 8 to 14 weeks old, n=14 to 18/group) under anesthesia by applying a pressure of 200 kdyn using an IH impactor. For seven consecutive days from the day of injury creation, 380 to 420 μL of the test compound dissolved in saline or DMSO, or vehicle was intraperitoneally administered. The daily doses were 20 mg/kg body weight of papaverine, 1 mg/kg body weight of mubritinib, and 1 mg/kg body weight of brexpiprazole. After the rats were kept for 8 weeks from injury creation, histological evaluation and sensory function evaluation for pathological conditions at the chronic stage of the spinal cord injury were performed. After perfusion and fixation of the rats in the same manner as in Example 3, the 2 cm long spinal cord centering the injury site was dissected. The dissected spinal cords were immersed in PBS containing 30% sucrose for overnight and then transected horizontally to prepare frozen sections having a thickness of 30 μm. After washing the sections with TBS, blocking was performed in a blocking buffer (TBS containing 5% normal horse serum and 0.25% Triton X-100) for 1 hour at room temperature. After washing with PBS, the sections were reacted with a primary antibody at 4° C. overnight. As the primary antibody, purified anti-Glial Fibrillary Acidic Protein (GFAP) Antibody (Biolegend) and Anti-NeuN Antibody, clone A60 (Millipore) were diluted with TBS containing 5% normal horse serum and 0.25% Triton X-100 at 1:1000 and at 1:500, respectively, and used. After washing with TBS, the sections were reacted with a secondary antibody at room temperature for 3 hours. As the secondary antibody, both Alexa Fluor 594 donkey anti-mouse IgG (Jackson ImmunoResearch) and Alexa Fluor 594 donkey anti-chicken IgG (Jackson ImmunoResearch) were diluted with TBS containing 3% normal horse serum and 0.25% Triton X-100 at 1:500, and used. After washing with TBS, the sections were observed using BZ-X710 (KEYENCE) to obtain fluorescent images. For the section of the central part of the spinal cord of the rat, the cavity area of the injured part, the area of the region immunostained with the GFAP antibody, and the number of cells immunostained with the NeuN antibody present on the lines 1.5 mm rostal and caudal from the center of the injury were measured. GFAP is a marker for reactive astrocytes and NeuN is a marker for neurons. Immediately after creating crush injuries in the fifth cervical cord (C5) of Lewis rats (female, 8 to 14 weeks old, n=8/group) under anesthesia in the same manner as in Example 4, 500 mg/kg of bismuth subnitrate dissolved in saline, or vehicle (saline) was intraperitoneally administered. After the rats were kept for 8 weeks from injury creation, histological evaluation and sensory function evaluation were performed for pathological conditions at the chronic stage of the spinal cord injury. In the same manner as in Example 4, for the section of the central part of the spinal cord of the rat, the reactive astrocyte area, the cavity area of the injured part, and the number of remaining neurons present on the lines 1.5 mm rostal and caudal from the center of the injury were measured.

[3] = test system: spinal cord crush injury rats; assay: Sensory function evaluation (pain stimulus response time) in spinal cord crush injury model; type: in vivo, Lewis rats; conditions: single i.p. dose 500 mg/kg immediately after C5 crush injury; vs vehicle; FIG. 13
Protocol: Crush injuries were created in the fifth cervical cord (C5) of Lewis rats (female, 8 to 14 weeks old, n=14 to 18/group) under anesthesia by applying a pressure of 200 kdyn using an IH impactor. For seven consecutive days from the day of injury creation, 380 to 420 μL of the test compound dissolved in saline or DMSO, or vehicle was intraperitoneally administered. The daily doses were 20 mg/kg body weight of papaverine, 1 mg/kg body weight of mubritinib, and 1 mg/kg body weight of brexpiprazole. After the rats were kept for 8 weeks from injury creation, histological evaluation and sensory function evaluation for pathological conditions at the chronic stage of the spinal cord injury were performed. […] Immediately after creating crush injuries in the fifth cervical cord (C5) of Lewis rats (female, 8 to 14 weeks old, n=8/group) under anesthesia in the same manner as in Example 4, 500 mg/kg of bismuth subnitrate dissolved in saline, or vehicle (saline) was intraperitoneally administered. After the rats were kept for 8 weeks from injury creation, histological evaluation and sensory function evaluation were performed for pathological conditions at the chronic stage of the spinal cord injury.

[4] = test system: spinal cord crush injury rats; assay: Walking function analysis (DigiGait) in spinal cord crush injury model; type: in vivo, Lewis rats; conditions: single i.p. dose 500 mg/kg, 8 weeks after injury
Protocol: Immediately after creating crush injuries in the fifth cervical cord (C5) of Lewis rats (female, 8 to 14 weeks old, n=8/group) under anesthesia in the same manner as in Example 4, 500 mg/kg of bismuth subnitrate dissolved in saline, or vehicle (saline) was intraperitoneally administered. After the rats were kept for 8 weeks from injury creation, histological evaluation and sensory function evaluation were performed for pathological conditions at the chronic stage of the spinal cord injury.
The ground contacting area (the Paw Area) of each leg and the maximum possible walking speed were measured in rats before and 8 weeks after spinal cord injury creation using the DigiGait walking analysis system for small animals (Bioresearch Center Co., Ltd.) according to the manual. […] All rats before spinal cord injury creation were able to walk at a treadmill speed of 20 cm/sec. In the vehicle-administered group, the number of rats that were able to walk at a speed of 15 cm/sec or faster decreased to two individuals, whereas in the bismuth subnitrate-administered group, 6 individuals were able to walk at a speed of 15 cm/sec or faster (FIG. 15).

[5] = test system: cerebral cortex injury mice; assay: IgG leakage in cerebral cortex injury model; type: in vivo, C57BL/6 mice; conditions: i.p. day before and on day of injury; bismuth subnitrate 500, papaverine 20 mg/kg; vs vehicle; FIG. 16
Protocol: Protection of the BBSCB function in traumatic brain injury by papaverine, mubritinib, brexpiprazole, and bismuth subnitrate was evaluated by observing suppression of IgG leakage from the injured site using the following method. C57BL/6 mice (male, 8 to 13 weeks old, n=3 to 4/group) were intraperitoneally administered 200 μL of the test compound dissolved in saline or DMSO, or vehicle. The doses were 20 mg/kg body weight of papaverine, 1 mg/kg body weight of mubritinib, 1 mg/kg body weight of brexpiprazole, and 500 mg/kg body weight of bismuth subnitrate. On the next day after administration, injuries were created in the left cerebral hemisphere cortex of the mice under anesthesia by a wire-knife transection method. The mice were immobilized in a stereotaxic frame, and the left lateral 1 mm portion from the bregma of the cranial bone was opened with a microdrill. A wire-knife was inserted into the lateral 1.0 mm from the bregma and 0.5 mm deep in the left cerebral hemisphere, and the wire was extended caudally and pulled up to create the injury. […] For evaluation of the IgG-stained area, taken images were binarized into black and white using Photoshop CS3 (Adobe, CA, USA), and then quantified using Image J (Schneider et al., 2012). […] All quantitative evaluations were performed with the slides blinded. […]

[6] = i.p. daily for 7 days from C5 crush injury, papaverine 20, mubritinib 1, brexpiprazole 1 mg/kg

Compound | cell protective effect on hCMEC/D3 (cell viability) compared with zinc sulfate [1] | leakage of IgG from the injured site of the cerebral cortex [5] | reactive astrocyte area (GFAP positive area) [2, 6] | also measured
O=C([O-])CC(O)(CC(=O)[O-])C(=O)[O-].O=C([O-])CC(O)(CC(=O)[O-])C(=O)[O-].[Bi+3].[K+].[K+].[K+] [Bismuth subcitrate, bismuth subcitrate] | significantly higher | – | – | –
O=[N+]([O-])[O-].O=[N+]([O-])[O-].O=[N+]([O-])[O-].O=[N+]([O-])[O-].[Bi+3].[Bi+3].[Bi+3].[Bi+3].[Bi+3].[O-2].[OH-].[OH-].[OH-].[OH-].[OH-].[OH-].[OH-].[OH-].[OH-] [bismuth subnitrate] | significantly higher | significantly suppressed | – | cavity area of the injured part ([2]; single i.p. dose 500 mg/kg immediately after C5 crush injury, FIG. 11): significantly reduced; number of remaining neurons, rostral side and caudal side of the injured part ([2]; single i.p. dose 500 mg/kg immediately after C5 crush injury, FIG. 12): increased both on the rostral side and the caudal side; response time of the forelimbs to pain stimulus [3]: significantly longer; number of rats able to walk at a speed of 15 cm/sec or faster ([4]; n=8/group, vehicle group two individuals, FIG. 15): 6 individuals; ground contacting area (the Paw Area) on one side ([4]; vs vehicle, FIG. 14): significantly increased
O=c1ccc2ccc(OCCCCN3CCN(c4cccc5sccc45)CC3)cc2[nH]1 [brexpiprazole, 7-[4-[4-(1-benzothiophen-4-yl)piperazin-1-yl]butoxy]-1H-quinolin-2-one] | – | – | significantly reduced | –
COc1ccc(Cc2nccc3cc(OC)c(OC)cc23)cc1OC [papaverine, 1-[(3,4-dimethoxyphenyl)methyl]-6,7-dimethoxyisoquinoline] | – | significantly suppressed | significantly reduced | cavity area of the injured part ([2]; i.p. daily for 7 days from C5 crush injury, papaverine 20, mubritinib 1, brexpiprazole 1 mg/kg, FIG. 7): significantly reduced; number of remaining neurons (NeuN-positive cells) ([2]; i.p. daily for 7 days from C5 crush injury, papaverine 20, mubritinib 1, brexpiprazole 1 mg/kg, FIG. 8): significantly increased
bismuth tartrate | significantly higher | – | – | –
